Key:
[1] = biological target: T1, full-length MALT1 protein His-MALT1(1-824) (Homo sapiens, UniProt Q9UDY8); assay: MALT1 protease assay (Ac-LRSR-AMC tetrapeptide substrate, fluorescence); assay type: biochemical; settings: 1 nM MALT1, 25 μM Ac-LRSR-AMC, 2 h pre-incubation, 8 hr incubation at RT
T1 construct: full-length MALT1 protein His-MALT1(1-824); His (N); made in house; host or cells: baculovirus-infected insect cells
T1 sequence (Q9UDY8 1-824): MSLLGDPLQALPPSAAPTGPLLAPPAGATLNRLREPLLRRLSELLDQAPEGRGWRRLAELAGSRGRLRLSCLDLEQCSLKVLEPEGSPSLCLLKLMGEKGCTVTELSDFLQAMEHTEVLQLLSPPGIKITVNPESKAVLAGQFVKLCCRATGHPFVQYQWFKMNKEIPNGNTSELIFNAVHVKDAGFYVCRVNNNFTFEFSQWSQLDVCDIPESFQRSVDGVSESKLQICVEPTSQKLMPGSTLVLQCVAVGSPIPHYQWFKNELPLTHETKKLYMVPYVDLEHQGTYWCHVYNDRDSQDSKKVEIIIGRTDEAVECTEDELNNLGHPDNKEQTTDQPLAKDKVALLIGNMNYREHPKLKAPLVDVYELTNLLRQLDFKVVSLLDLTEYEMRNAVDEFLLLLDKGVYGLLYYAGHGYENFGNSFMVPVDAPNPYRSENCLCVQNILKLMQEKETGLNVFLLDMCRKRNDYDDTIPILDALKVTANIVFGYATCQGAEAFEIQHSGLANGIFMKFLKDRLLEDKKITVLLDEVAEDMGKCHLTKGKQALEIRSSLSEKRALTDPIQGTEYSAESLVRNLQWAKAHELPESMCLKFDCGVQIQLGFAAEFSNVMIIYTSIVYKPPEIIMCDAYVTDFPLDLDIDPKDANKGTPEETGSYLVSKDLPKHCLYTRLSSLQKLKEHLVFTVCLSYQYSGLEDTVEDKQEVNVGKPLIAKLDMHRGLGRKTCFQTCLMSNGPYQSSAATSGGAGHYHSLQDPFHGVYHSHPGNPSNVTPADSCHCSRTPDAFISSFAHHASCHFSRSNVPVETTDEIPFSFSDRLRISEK
Procedure, shortened: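 Full-length His-MALT1(1-824) from baculovirus-infected insect cells (1 nM) was pre-incubated 2 h at RT with compounds (0.1% DMSO), then 25 μM Ac-LRSR-AMC added in 50 mM Tris pH 7.5, 600 mM sodium citrate, 1 mM DTT, 1 mM EDTA, 0.05% BSA. Fluorescence (ex 355/em 460 nm) read after 8 h at RT; IC50 by non-linear regression of % remaining activity.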

[2] = tested on: IL10 secretion, OCI-LY10 cells; assay: Human IL10 secretion assay in OCI-LY10 cells (MSD); assay type: cell-based; settings: 24 h incubation, relative to DMSO set as 100%, read-out: IL-10 Secretion IC50
Description: IL10 is one of the cytokines that are regulated via activation of NF-kB signaling. For example, in ABC-DLBCL cell lines, the activated NF-kB signaling leads to increased IL10 secretion. Inhibition of NF-kB signaling has been shown leading to decreased IL10 secretion.
OCI-LY10 cells were seeded in IMEM supplemented with 20% fetal bovine serum at 4.8×10^5 cells per 160 μL per well in 96-well V-bottom cell culture plates (coming, 3894), treated with 120 nL of 3-fold serial compound dilutions, starting at 4 mM. The final vehicle concentration was 0.075% DMSO in all wells. After a 24 h incubation, human IL-10 pre-coated plates (Meso Scale Discovery) were washed 3 times with PBST, and 50 μL culture medium was aspirated into the MSD plate and incubated at 4° C. overnight. The supernatant was then discarded, and the wells were washed 3 times with PBST. SULFO-TAG Anti-human IL-10 Antibody (50×) was diluted 50-fold according to the Meso Scale Protocol, then 25 μL of SULFO-TAG Anti-human IL-10 Antibody (1×) was added. After 2 h of incubation at RT, the supernatant was discarded, and the well was washed 3 times with PBST. 2× read buffer was added and the signal was read on an MSD Sector S600. The effect of a particular compound on IL10 secretion is shown relative to the effect of DMSO; set as 100%. IC50 values (nM) were determined using 4-parametric curve-fitting.

Compound | IC50 [1] [nM] | IC50 [2] [nM]
Cn1ccc([C@@]2(C)C[C@H](C(=O)Nc3cnc(-n4nccn4)c(Cl)c3)c3cnc4cc(F)nn4c32)n1 (single isomer, unassigned) [Example 32] | < 10 | 100 to 1000
Cn1ccc([C@@]2(C)C[C@H](C(=O)Nc3cnc(OC(F)F)c(C#N)c3)c3cnc4cc(F)nn4c32)n1 (single isomer, unassigned) [Example 68] | < 10 | 100 to 1000
CC1(c2ccn(C(F)F)n2)CC(C(=O)Nc2cnc(-c3ncc(F)cn3)c(C(F)(F)F)c2)c2cnc3cc(F)nn3c21 (single isomer, unassigned) [Example 116] | < 10 | 100 to 1000
Cn1cc([C@@]2(C)C[C@H](C(=O)Nc3cnc(-n4nccn4)c(Cl)c3)c3cnc4cc(F)nn4c32)cn1 (single isomer, unassigned) [Example 1] | < 10 | 100 to 1000
C[C@]1(c2cnn(C(F)F)c2)C[C@H](C(=O)Nc2cnc(OC(F)F)c(C#N)c2)c2cnc3cc(F)nn3c21 (single isomer, unassigned) [Example 92] | < 10 | 100 to 1000
C[C@]1(c2ccn(C(F)F)n2)C[C@H](C(=O)Nc2cnc(OC(F)F)c(C#N)c2)c2cnc3cc(F)nn3c21 (single isomer, unassigned) [Example 110] | < 10 | 10 to 100
Cn1cc([C@@]2(C)C[C@H](C(=O)Nc3cnc(OC(F)F)c(C#N)c3)c3cnc4cc(F)nn4c32)cn1 (single isomer, unassigned) [Example 40] | < 10 | 10 to 100

Further lines, results first:

IC50 [1] [nM] | IC50 [2] [nM] | Compound
< 10 | 10 to 100 | Cn1cc([C@@]2(C)C[C@H](C(=O)Nc3cnc(-n4nccn4)c(Cl)c3)c3cnc4cc(Cl)nn4c32)cn1 (single isomer, unassigned) [Example 8]
< 10 | 10 to 100 | C[C@]1(c2cnn(C(F)F)c2)C[C@H](C(=O)Nc2cnc(-n3nccn3)c(Cl)c2)c2cnc3cc(F)nn3c21 (single isomer, unassigned) [Example 24]
< 10 | 10 to 100 | C[C@]1(c2ccn(C(F)F)n2)C[C@H](C(=O)Nc2cnc(-c3ncccn3)c(C(F)(F)F)c2)c2cnc3cc(F)nn3c21 (single isomer, unassigned) [Example 136]
< 10 | 10 to 100 | CC(F)(F)n1cc([C@@]2(C)C[C@H](C(=O)Nc3cnc(-n4nccn4)c(Cl)c3)c3cnc4cc(F)nn4c32)cn1 (single isomer, unassigned) [Example 120]
< 10 | 10 to 100 | C[C@]1(c2ccn(C(F)F)n2)C[C@H](C(=O)Nc2cnc(-n3nccn3)c(C(F)(F)F)c2)c2cnc3cc(F)nn3c21 (single isomer, unassigned) [Example 124]
< 10 | 10 to 100 | C[C@]1(c2cnn(C3CC3)c2)C[C@H](C(=O)Nc2cnc(-n3nccn3)c(Cl)c2)c2cnc3cc(F)nn3c21 (single isomer, unassigned) [Example 28]
< 10 | 10 to 100 | Cn1cc([C@@]2(C)C[C@H](C(=O)Nc3cnc(-n4nccn4)c(C(F)(F)F)c3)c3cnc4cc(F)nn4c32)cn1 (single isomer, unassigned) [Example 5]
< 10 | 100 to 1000 | Cn1ccc([C@@]2(C)C[C@H](C(=O)Nc3cnc(-n4nccn4)c(C(F)(F)F)c3)c3cnc4cc(F)nn4c32)n1 (single isomer, unassigned) [Example 144]
< 10 | 10 to 100 | CCn1cc([C@@]2(C)C[C@H](C(=O)Nc3cnc(-n4nccn4)c(Cl)c3)c3cnc4cc(F)nn4c32)cn1 (single isomer, unassigned) [Example 20]
< 10 | 10 to 100 | C[C@]1(c2ccn(C(F)F)n2)C[C@H](C(=O)Nc2cnc(-c3ncccn3)c(Cl)c2)c2cnc3cc(F)nn3c21 (single isomer, unassigned) [Example 140]

— patent publication US20260049085A1, “CYCLIC COMPOUNDS AND METHODS OF USING SAME” (SCHRÖDINGER, INC., priority 2022, published 2026)
